# Measured values taken from US20220000110A1, “COMPOSITIONS COMPRISING PYRIDINE CARBOXYLATE HERBICIDES AND CELLULOSE BIOSYNTHESIS INHIBITOR HERBICIDES” (priority 2018, published 2022).
# Tests used:
# Experiment in all cases: Greenhouse postemergence herbicidal effect, visual injury after 20-22 d
# Type in all cases: in vivo
# Kochia scoparia (kochia) = settings: KCHSC
# From the text: (§1) Greenhouse Trial Methodology—Evaluation of Postemergence Herbicidal Effect
# (§2) Seeds of the desired test plant species were planted in a 90:10% v/v (volume/volume) mixture of PRO-MIX® BX (Premier Tech Horticulture, Quakertown, Pa., USA) and PROFILE® GREENS GRADE™ (Profile Products LLC, Buffalo Grove, Ill., USA) planting mixture, which typically has a pH of 5.2 to 6.2 and an organic matter content of at least 50 percent, in plastic pots with a surface area of 103.2 square centimeters (cm^2). In some aspects, to help ensure good germination and healthy plants, a fungicide treatment and/or other chemical or physical treatment was applied. The plants were grown for 7-36 days (d) in a greenhouse with an approximate 14-hour (h) photoperiod which was maintained at about 23° C. during the day and 22° C. during the night. Nutrients and water were added on a regular basis and supplemental lighting was provided with overhead metal halide 1000-Watt lamps as necessary. The plants were employed for testing when they reached the second or third true leaf stage.
# (§3) Emulsifiable concentrates of each of each pyridine carboxylate herbicide (Compound A or Compound B) were prepared at 100 grams acid equivalent per liter (g ae/L). The emulsifiable concentrates also included a safener, at 120 grams active ingredient per liter (g ai/L). An aliquot of each emulsifiable concentrate was placed in a 25 mL glass vial and diluted with an aqueous mixture of 1.25% (v/v) ACTIROB® B esterified rapeseed oil (Bayer Crop Science, Research Triangle Park, N.C., USA) or MSO® Concentrate with LECI-TECH® methylated soybean oil (Loveland Products, Loveland, Colo., USA) to obtain concentrated stock solutions at the highest application rate for each herbicide, based upon a 12 milliliter (mL) application volume at a rate of 187 liters per hectare (L/ha). The concentrated stock solutions were further diluted with an aqueous mixture of 1.25% v/v ACTIROB® B or MSO® Concentrate with LECI-TECH® to obtain stock solutions at reduced application rates for each herbicide. Spray solutions of the herbicide combinations (Compound A or Compound B plus the CBI herbicide) were prepared by adding weighed amounts or aliquots of the CBI herbicide to the stock solutions of Compound A or Compound B to form 12-mL spray solutions in two-way combinations.
# (§4) The spray solutions were applied to the plant material with an overhead Mandel track sprayer equipped with 8002E nozzles calibrated to deliver 187 L/ha over an application area of 0.503 square meters (m^2) at a spray height of 18 inches (43 centimeters (cm)) above the average plant canopy. Control plants were sprayed in the same manner with the solvent blank. All pyridine carboxylate herbicide (component a) application rates are given as “g ae/ha” and all CBI herbicide (component b) application rates are given as “g ai/ha.”
# (§5) The treated plants and control plants were placed in a greenhouse as described above and watered by sub-irrigation to prevent wash-off of the test compounds. After 20-22 d, the condition of the test plants as compared with that of the control plants was determined visually and scored on a scale of 0 to 100 percent where 0 corresponds to no injury and 100 corresponds to complete kill.
# [1] = system: Amaranthus retroflexus (pigweed); settings: AMARE
# From the text: as §1, §2, §3, §4, §5
# [2] = system: Polygonum convolvulus (wild buckwheat); settings: POLCO
# From the text: as §1, §2, §3, §4, §5
# [3] = system: Viola tricolor (wild pansy); settings: VIOTR
# From the text: as §1, §2, §3, §4, §5
# [4] = system: Ipomoea hederacea (ivyleaf morningglory); settings: IPOHE
# From the text: as §1, §2, §3, §4, §5
# [5] = system: Salsola kali (Russian thistle); settings: SASKR
# From the text: as §1, §2, §3, §4, §5
# [6] = system: Abutilon theophrasti (velvetleaf); settings: ABUTH
# From the text: as §1, §2, §3, §4, §5
# [7] = system: Setaria faberi (giant foxtail); settings: SETFA
# From the text: as §1, §2, §3, §4, §5
# [8] = system: Matricaria chamomilla (wild chamomile); settings: MATCH
# From the text: as §1, §2, §3, §4, §5
# [9] = system: Echinochloa crus-galli (barnyard grass); settings: ECHCG
# From the text: as §1, §2, §3, §4, §5
# [10] = system: Brassica napus (spring rape); settings: BRSNN
# From the text: as §1, §2, §3, §4, §5
# [11] = system: Digitaria sanguinalis (large crabgrass); settings: DIGSA
# From the text: as §1, §2, §3, §4, §5
# [12] = system: Chenopodium album L. (common lambsquarters); settings: CHEAL
# From the text: as §1, §2, §3, §4, §5
# [13] = system: Cirsium arvense (Canadian thistle); settings: CIRAR
# From the text: as §1, §2, §3, §4, §5
# [14] = system: Lolium multiflorum (Italian rye grass); settings: Table 2; LOLMU; Indaziflam 35 g/ha
# From the text: as §1, §2, §3, §4, §5
# [15] = system: Brassica napus (winter rape); settings: BRSNW
# From the text: as §1, §2, §3, §4, §5
# [16] = system: Euphorbia heterophylla (poinsettia); settings: Table 1; EPHHL; Isoxaben 50 g/ha
# From the text: as §1, §2, §3, §4, §5
# [17] = system: Oryza sativa (common rice); settings: Table 1; ORYSA; Isoxaben 50 g/ha
# From the text: as §1, §2, §3, §4, §5
# [18] = system: Sorghum vulgare (grain sorghum); settings: Table 1; SORVU; Isoxaben 50 g/ha
# From the text: as §1, §2, §3, §4, §5
# [19] = system: Cyperus esculentus (nutsedge); settings: Table 1; CYPES; Isoxaben 50 g/ha
# From the text: as §1, §2, §3, §4, §5
# [20] = system: Helianthus annuus (common sunflower); settings: Table 1; HELAN; Isoxaben 50 g/ha
# From the text: as §1, §2, §3, §4, §5
# [21] = system: Stellaria media (chickweed); settings: Table 1; STEME; Isoxaben 50 g/ha
# From the text: as §1, §2, §3, §4, §5
# [22] = system: Rumex obtusifolius (broad-leaf dock); settings: Table 1; RUMOB; Isoxaben 50 g/ha
# From the text: as §1, §2, §3, §4, §5
# Glycine max (soybean) = settings: Table 1; GLXMA; Isoxaben 50 g/ha
# From the text: as §1, §2, §3, §4, §5
compound,measurement,setting,value
"Cc1ccc2c(c1)[C@H](Nc1nc(N)nc(C(C)F)n1)[C@@H](C)C2 (some centres unmarked) [Indaziflam, indaziflam, reference compound]",Obs % visual injury,"Kochia scoparia (kochia); Table 2, Indaziflam 35 g/ha",40%
same,Obs % visual injury,"Kochia scoparia (kochia); Table 3, Indaziflam 35 g/ha",28%
same,Obs % visual injury,"Kochia scoparia (kochia); Table 3, Indaziflam 70 g/ha",30%
same,Obs % visual injury,"[1]; Table 3, Indaziflam 35 g/ha",23%
same,Obs % visual injury,"[1]; Table 3, Indaziflam 70 g/ha",33%
same,Obs % visual injury,"[2]; Table 2, Indaziflam 35 g/ha",10%
same,Obs % visual injury,"[2]; Table 3, Indaziflam 35 g/ha",10%
same,Obs % visual injury,"[2]; Table 3, Indaziflam 70 g/ha",13%
same,Obs % visual injury,"[3]; Table 2, Indaziflam 35 g/ha",5%
same,Obs % visual injury,"[4]; Table 2, Indaziflam 35 g/ha",10%
same,Obs % visual injury,"[5]; Table 3, Indaziflam 35 g/ha",55%
same,Obs % visual injury,"[5]; Table 3, Indaziflam 70 g/ha",60%
same,Obs % visual injury,"[6]; Table 2, Indaziflam 35 g/ha",60%
same,Obs % visual injury,"[7]; Table 2, Indaziflam 35 g/ha",0%
same,Obs % visual injury,"[8]; Table 3, Indaziflam 35 g/ha",13%
same,Obs % visual injury,"[8]; Table 3, Indaziflam 70 g/ha",38%
same,Obs % visual injury,"[9]; Table 2, Indaziflam 35 g/ha",0%
same,Obs % visual injury,"[10]; Table 2, Indaziflam 35 g/ha",30%
same,Obs % visual injury,"[11]; Table 2, Indaziflam 35 g/ha",0%
same,Obs % visual injury,"[12]; Table 3, Indaziflam 35 g/ha",10%
same,Obs % visual injury,"[12]; Table 3, Indaziflam 70 g/ha",10%
same,Obs % visual injury,"[13]; Table 2, Indaziflam 35 g/ha",5%
same,Obs % visual injury,[14],0%
same,Obs % visual injury,"[15]; Table 3, Indaziflam 35 g/ha",45%
same,Obs % visual injury,"[15]; Table 3, Indaziflam 70 g/ha",45%
"CCC(C)(CC)c1cc(NC(=O)c2c(OC)cccc2OC)on1 [Isoxaben, isoxaben, reference compound]",Obs % visual injury,"Kochia scoparia (kochia); Table 1, Isoxaben 50 g/ha",13%
same,Obs % visual injury,"Kochia scoparia (kochia); Table 4, Isoxaben 50 g/ha",5%
same,Obs % visual injury,"Kochia scoparia (kochia); Table 4, Isoxaben 100 g/ha",5%
same,Obs % visual injury,[16],15%
same,Obs % visual injury,"[1]; Table 1, Isoxaben 50 g/ha",10%
same,Obs % visual injury,"[1]; Table 4, Isoxaben 50 g/ha",20%
same,Obs % visual injury,"[1]; Table 4, Isoxaben 100 g/ha",10%
same,Obs % visual injury,"[2]; Table 1, Isoxaben 50 g/ha",0%
same,Obs % visual injury,"[2]; Table 4, Isoxaben 50 g/ha",0%
same,Obs % visual injury,"[2]; Table 4, Isoxaben 100 g/ha",0%
same,Obs % visual injury,"[3]; Table 1, Isoxaben 50 g/ha",0%
same,Obs % visual injury,"[4]; Table 1, Isoxaben 50 g/ha",3%
same,Obs % visual injury,"[5]; Table 4, Isoxaben 50 g/ha",0%
same,Obs % visual injury,"[5]; Table 4, Isoxaben 100 g/ha",5%
same,Obs % visual injury,[17],0%
same,Obs % visual injury,"[6]; Table 1, Isoxaben 50 g/ha",5%
same,Obs % visual injury,"[7]; Table 1, Isoxaben 50 g/ha",5%
same,Obs % visual injury,[18],8%
same,Obs % visual injury,"[8]; Table 4, Isoxaben 50 g/ha",15%
same,Obs % visual injury,"[8]; Table 4, Isoxaben 100 g/ha",15%
same,Obs % visual injury,"[9]; Table 1, Isoxaben 50 g/ha",5%
same,Obs % visual injury,"[10]; Table 1, Isoxaben 50 g/ha",55%
same,Obs % visual injury,[19],0%
same,Obs % visual injury,[20],18%
same,Obs % visual injury,"[11]; Table 1, Isoxaben 50 g/ha",0%
same,Obs % visual injury,[21],0%
same,Obs % visual injury,[22],0%
same,Obs % visual injury,"[12]; Table 1, Isoxaben 50 g/ha",0%
same,Obs % visual injury,"[12]; Table 4, Isoxaben 50 g/ha",0%
same,Obs % visual injury,"[12]; Table 4, Isoxaben 100 g/ha",0%
same,Obs % visual injury,"[13]; Table 1, Isoxaben 50 g/ha",8%
same,Obs % visual injury,"[15]; Table 4, Isoxaben 50 g/ha",53%
same,Obs % visual injury,"[15]; Table 4, Isoxaben 100 g/ha",60%
same,Obs % visual injury,Glycine max (soybean),0%
